Data as given in patent US20240279215A1 (Cytokinetics, Incorporated, priority 2022, published 2024).

Molecular target: human NAMPT (Homo sapiens (Human), UniProt P43490)
Test: NMN fluorescence biochemical assay (human recombinant NAMPT enzyme assay)
Outline: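 NMN formed was detected by fluorescence (Ex/Em 355/460 nm) after acetophenone, KOH and formic acid derivatization. The cell-free reaction ran 60 min at ambient temperature with 6 nM human NAMPT, 150 μM nicotinamide, 20 μM PRPP, 2.5 mM ATP, pH 7.2 HEPES, and compound dose responses.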

human NAMPT, sequence (P43490 whole entry): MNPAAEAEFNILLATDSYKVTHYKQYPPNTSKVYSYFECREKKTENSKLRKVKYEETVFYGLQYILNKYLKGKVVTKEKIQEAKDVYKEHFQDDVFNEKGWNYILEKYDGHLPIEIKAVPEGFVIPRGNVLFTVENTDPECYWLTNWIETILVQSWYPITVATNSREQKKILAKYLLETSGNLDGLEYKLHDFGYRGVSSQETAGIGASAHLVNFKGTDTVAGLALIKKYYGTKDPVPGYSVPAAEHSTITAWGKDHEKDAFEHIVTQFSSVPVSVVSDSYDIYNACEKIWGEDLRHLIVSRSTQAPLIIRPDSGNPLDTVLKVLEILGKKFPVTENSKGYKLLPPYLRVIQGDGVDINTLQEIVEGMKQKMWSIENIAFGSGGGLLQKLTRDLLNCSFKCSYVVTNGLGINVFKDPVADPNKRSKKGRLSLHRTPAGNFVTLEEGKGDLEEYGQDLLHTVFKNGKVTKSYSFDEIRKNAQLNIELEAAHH

CN(Cc1ccc(NC(=O)OCc2ccc(Cl)cc2)cc1)C(=O)c1cncc(F)c1 [Compound 250, (4-chlorophenyl)methyl N-(4-{[1-(5-fluoropyridin-3-yl)-N-methylformamido]methyl}phenyl)carbamate] was tested, and the “AC1.4 Human” value was 2.58 µM and the EC50 was 21.3 µM.
With CN(C)S(=O)(=O)N1CCC(Cc2ccc(NC(=O)OCc3cnco3)cc2)CC12CC2 (stereo not shown) [Compound 440, oxazol-5-ylmethyl (4-((4-(N,N-dimethylsulfamoyl)-4-azaspiro[2.5]octan-7-yl)methyl)phenyl)carbamate] the “AC1.4 Human” value was 0.21 µM and the EC50 was 3.53 µM.
COC1CN(C(=O)N[C@@H](C)c2ccc(NC(=O)OCc3ccc(Cl)cc3)cc2)C1 [Compound 170, (4-chlorophenyl)methyl N-{4-[(1S)-1-(3-methoxyazetidine-1-carbonylamino)ethyl]phenyl}carbamate] was tested, and the “AC1.4 Human” value was 1.41 µM and the EC50 was 9.33 µM.
For O=C(Nc1ccc(CC(=O)N2CCOCC2)cc1)OCc1ccc(Cl)cc1 [Compound 220, (4-chlorophenyl)methyl N-{4-[2-(morpholin-4-yl)-2-oxoethyl]phenyl}carbamate], the “AC1.4 Human” value was 2.03 µM and the EC50 was 32.5 µM.
With Cc1ccc(C(=O)NCc2ccc(NC(=O)OCc3ccc(F)cc3)cc2)cn1 [Compound 227, 4-fluorobenzyl (4-((6-methylnicotinamido)methyl)phenyl)carbamate] the “AC1.4 Human” value was 2.11 µM and the EC50 was 3.47 µM.
O=C(Nc1ccc(NS(=O)(=O)Cc2ccccc2)cc1)OCc1ccc(Cl)cc1 [Compound 33, 4-chlorobenzyl (4-((phenylmethyl)sulfonamido)phenyl)carbamate] was tested, and the “AC1.4 Human” value was 0.38 µM and the EC50 was 1.01 µM.
O=C(Nc1ccc(CNC(=O)C2COC2)cc1)OCc1ccc(Cl)cc1 [Compound 310, (4-chlorophenyl)methyl N-{4-[(oxetan-3-ylformamido)methyl]phenyl}carbamate] was tested, and the “AC1.4 Human” value was 5.29 µM and the EC50 was 32.8 µM.
For O=C(Nc1ccc(Cc2cocn2)cc1)OCc1ccc(Cl)cc1 [Compound 353, 4-chlorobenzyl (4-(oxazol-4-ylmethyl)phenyl)], the “AC1.4 Human” value was 23.63 µM and the EC50 was 24.3 µM.
For Cc1nnc(Cc2ccc(NC(=O)OCc3ccc(Cl)cc3)cc2)o1 [Compound 322, (4-chlorophenyl)methyl N-{4-[(5-methyl-1,3,4-oxadiazol-2-yl)methyl]phenyl}carbamate], the “AC1.4 Human” value was 7.23 µM and the EC50 was 39.3 µM.
For O=C(Nc1ccc(CC2CCN(C3COC3)CC2)cc1)OCc1cncs1 [Compound 466, thiazol-5-ylmethyl (4-((1-(oxetan-3-yl)piperidin-4-yl)methyl)phenyl)carbamate], the “AC1.4 Human” value was 1.19 µM and the EC50 was 14.5 µM.
CCc1ncoc1C(=O)N[C@@H](C)c1ccc(NC(=O)OCc2ccc(Cl)cc2)cc1 [Compound 260, (4-chlorophenyl)methyl N-{4-[(1S)-1-[(4-ethyl-1,3-oxazol-5-yl)formamido]ethyl]phenyl}carbamate] was tested, and the “AC1.4 Human” value was 2.77 µM and the EC50 was 14.5 µM.
For Cc1ncccc1C(=O)NCc1ccc(NC(=O)OCc2ccc(Cl)cc2)cc1 [Compound 192, (4-chlorophenyl)methyl N-(4-{[(2-methylpyridin-3-yl)formamido]methyl}phenyl)carbamate], the “AC1.4 Human” value was 1.70 µM and the EC50 was 6.45 µM.
With CN(C)C(=O)N1CCC(c2ccc(NC(=O)OCc3cnco3)cc2F)CC1 [Compound 411, oxazol-5-ylmethyl (4-(1-(dimethylcarbamoyl)piperidin-4-yl)-3-fluorophenyl)carbamate] the “AC1.4 Human” value was 0.04 µM and the EC50 was 19 µM.
With O=C(Nc1ccc(CC2CC3CCC(C2)N3C(=O)N2CCCCC2)cc1)OCc1cnco1 (stereo not shown) [Compound 390, oxazol-5-ylmethyl (4-((8-(piperidine-1-carbonyl)-8-azabicyclo[3.2.1]octan-3-yl)methyl)phenyl)carbamate] the “AC1.4 Human” value was 0.13 µM and the EC50 was 1.8 µM.
With CCc1cc(C(=O)NCc2ccc(NC(=O)OCc3ccc(Cl)cc3)cc2)n(C)n1 [Compound 208, (4-chlorophenyl)methyl N-(4-{[(5-ethyl-2-methylpyrazol-3-yl)formamido]methyl}phenyl)carbamate] the “AC1.4 Human” value was 1.87 µM and the EC50 was 17.4 µM.
For C[C@@H](c1ccc(NC(=O)OCc2ccc(Cl)cc2)cc1)N(C)C(=O)N1CCCC1 [Compound 143, 4-chlorobenzyl (S)-(4-(1-(N-methylpyrrolidine-1-carboxamido)ethyl)phenyl)carbamate], the “AC1.4 Human” value was 1.18 µM and the EC50 was 10.8 µM.
Cc1noc(C(=O)N[C@@H](C)c2ccc(NC(=O)OCc3ccc(Cl)cc3)cc2)c1C [Compound 46, 4-chlorobenzyl (S)-(4-(1-(3,4-dimethylisoxazole-5-carboxamido)ethyl)phenyl)carbamate] was tested, and the “AC1.4 Human” value was 0.48 µM and the EC50 was 2.58 µM.
In the case of COC1CCN(C(=O)N[C@@H](C)c2ccc(NC(=O)OCc3ccc(Cl)cc3)cc2)CC1 [Compound 72, 4-chlorobenzyl (S)-(4-(1-(4-methoxypiperidine-1-carboxamido)ethyl)phenyl)carbamate], the “AC1.4 Human” value is reported as 0.62 µM and the EC50 is reported as 5.27 µM.
For O=C(Nc1ccc(CC2CCN(CC3CCO3)CC2)cc1)OCc1cnco1 (stereo not shown) [Compound 471, oxazol-5-ylmethyl (4-((1-(oxetan-2-ylmethyl)piperidin-4-yl)methyl)phenyl)carbamate], the “AC1.4 Human” value was 0.50 µM and the EC50 was 15 µM.
With Cc1nocc1C(=O)NCc1ccc(NC(=O)OCc2ccc(Cl)cc2)cc1 [Compound 251, (4-chlorophenyl)methyl N-(4-{[(3-methyl-1,2-oxazol-4-yl)formamido]methyl}phenyl)carbamate] the “AC1.4 Human” value was 2.59 µM and the EC50 was 11 µM.
With C[C@H](NC(=O)[C@@H]1C[C@@H]2[C@H](C1)C2(F)F)c1ccc(NC(=O)OCc2cnco2)cc1 [Compound 68, 1,3-oxazol-5-ylmethyl N-{4-[(1S)-1-{[(1R,3s,5S)-6,6-difluorobicyclo[3.1.0]hexan-3-yl]formamido}ethyl]phenyl}carbamate] the “AC1.4 Human” value was 0.59 µM and the EC50 was 11.1 µM.
In the case of CN(C)S(=O)(=O)N1CC2CC(C1)C2Cc1ccc(NC(=O)OCc2cnco2)cc1 (stereo not shown) [Compound 433, oxazol-5-ylmethyl (4-((3-(N,N-dimethylsulfamoyl)-3-azabicyclo[3.1.1]heptan-6-yl)methyl)phenyl)carbamate], the “AC1.4 Human” value is reported as 0.21 µM and the EC50 is reported as 7.43 µM.
In the case of O=C(Nc1ccc(CC2CC3(CCNC3)C2)c(F)c1)OCc1cnco1 (stereo not shown) [Compound 378, oxazol-5-ylmethyl (4-((6-azaspiro[3.4]octan-2-yl)methyl)-3-fluorophenyl)carbamate], the “AC1.4 Human” value is reported as 0.38 µM and the EC50 is reported as 18.6 µM.
Cc1nocc1C(=O)N(C)Cc1ccc(NC(=O)OCc2ccc(Cl)cc2)cc1 [Compound 108, (4-chlorophenyl)methyl N-(4-{[N-methyl-1-(3-methyl-1,2-oxazol-4-yl)formamido]methyl}phenyl)carbamate] was tested, and the “AC1.4 Human” value was 0.89 µM and the EC50 was 8.17 µM.
CC(=O)N1CCC2(CC(Cc3ccc(NC(=O)OCc4cnco4)cc3F)C2)C1 (stereo not shown) [Compound 374, oxazol-5-ylmethyl (4-((6-acetyl-6-azaspiro[3.4]octan-2-yl)methyl)-3-fluorophenyl)carbamate] was tested, and the “AC1.4 Human” value was 0.08 µM and the EC50 was 4.17 µM.
For CCS(=O)(=O)N1CCC(c2ccc(NC(=O)OCc3cnco3)cc2)CC1 [Compound 427, oxazol-5-ylmethyl (4-(1-(ethylsulfonyl)piperidin-4-yl)phenyl)carbamate], the “AC1.4 Human” value was 0.16 µM and the EC50 was 2.64 µM.
For O=C(Nc1ccc(COC2CN(C3COC3)C2)cc1)OCc1ccc(Cl)cc1 [Compound 354, 4-chlorobenzyl (4-(((1-(oxetan-3-yl)azetidin-3-yl)oxy)methyl)phenyl)carbamate], the “AC1.4 Human” value was 23.64 µM and the EC50 was 38.8 µM.
In the case of O=C(Nc1ccc(CC(=O)N2CC[C@@H](O)C2)cc1)OCc1ccc(Cl)cc1 [Compound 317, (4-chlorophenyl)methyl N-(4-{2-[(3R)-3-hydroxypyrrolidin-1-yl]-2-oxoethyl}phenyl)carbamate], the “AC1.4 Human” value is reported as 6.19 µM and the EC50 is reported as 32.4 µM.
For CCc1ccc(C(=O)NCc2ccc(NC(=O)OCc3ccc(Cl)cc3)cc2)cn1 [Compound 82, (4-chlorophenyl)methyl N-(4-{[(6-ethylpyridin-3-yl)formamido]methyl}phenyl)carbamate], the “AC1.4 Human” value was 0.66 µM and the EC50 was 3.9 µM.
CN1CCN(C(=O)Cc2ccc(NC(=O)OCc3ccc(Cl)cc3)cc2)CC1=O [Compound 332, (4-chlorophenyl)methyl N-{4-[2-(4-methyl-3-oxopiperazin-1-yl)-2-oxoethyl]phenyl}carbamate] was tested, and the “AC1.4 Human” value was 8.89 µM and the EC50 was 50.6 µM.
For CN(C)C(=O)N1CCC(c2ccc(NC(=O)OCc3cnco3)cc2)CC1 [Compound 4, oxazol-5-ylmethyl (4-(1-(dimethylcarbamoyl)piperidin-4-yl)phenyl)carbamate], the “AC1.4 Human” value was 0.06 µM and the EC50 was 21.8 µM.
With CS(=O)(=O)N1CCC(Cc2ccc(NC(=O)OCc3cnco3)cc2)CC12CC2 (stereo not shown) [Compound 419, oxazol-5-ylmethyl (4-((4-(methylsulfonyl)-4-azaspiro[2.5]octan-7-yl)methyl)phenyl)carbamate] the “AC1.4 Human” value was 0.32 µM and the EC50 was 12.7 µM.
O=C(Cc1ccc(NC(=O)OCc2ccc(Cl)cc2)cc1)N[C@H]1CC[C@H](OC(F)F)CC1 [Compound 221, (4-chlorophenyl)methyl N-[4-({[(1r,4r)-4-(difluoromethoxy)cyclohexyl]carbamoyl}methyl)phenyl]carbamate] was tested, and the “AC1.4 Human” value was 2.04 µM and the EC50 was 2.16 µM.
For CN(Cc1ccc(NC(=O)OCc2ccc(Cl)cc2)cc1)C(=O)c1cc[nH]n1 [Compound 49, (4-chlorophenyl)methyl N-{4-[(N-methyl-1-1H-pyrazol-3-ylformamido)methyl]phenyl}carbamate], the “AC1.4 Human” value was 0.50 µM and the EC50 was 2.02 µM.
With CS(=O)(=O)N1CCC[C@@H](c2ccc(NC(=O)OCc3cnco3)cc2)C1 [Compound 382, oxazol-5-ylmethyl (S)-(4-(1-(methylsulfonyl)piperidin-3-yl)phenyl)carbamate] the “AC1.4 Human” value was 0.35 µM and the EC50 was 22.4 µM.
